The target in test [1] is T1, ΔF508-CFTR (Homo sapiens, UniProt P13569, DEL508-508).
T1 construct: host or cells: CFBE41o-, doxycycline-inducible
The experiment in a line: CFTR cell surface levels using HRP-tagged ΔF508-CFTR expressing CFBE cells, intrinsic corrector capacity. Type of test: cell-based. Also noted: % Activation: concentration or dose not given beside the values. The conditions noted are these: HRP-tagged ΔF508-CFTR expressing CFBE41o- cells, compound alone (intrinsic corrector capacity), 20 hours at 33° C.; for EC50: read-out: EC50. In short, it runs like this: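 Read-out: chemiluminescent HRP activity of ECL4-HRP-tagged ΔF508-CFTR at the cell surface, 15 min substrate in dark. Normalized as 100×(sample−DMSO)/(positive control−DMSO).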

The target in test [2] is T1, ΔF508-CFTR. In words: CFTR cell surface levels using HRP-tagged ΔF508-CFTR expressing CFBE cells, in the presence of a co-corrector. Type of test: cell-based. The note with it: HRP-tagged ΔF508-CFTR CFBE cells, in the presence of 3 μM co-corrector; for EC50: read-out: EC50. In short, it runs like this: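 Chemiluminescent read-out of surface HRP (15 min, dark) after PBS washes. Activity is normalized as 100×(sample−DMSO)/(3 μM co-corrector alone−DMSO).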

In general, EC50 refers to the concentration at which the effect is half-maximal.

T1 sequence (P13569 with tags, fused parts or gaps DEL508-508): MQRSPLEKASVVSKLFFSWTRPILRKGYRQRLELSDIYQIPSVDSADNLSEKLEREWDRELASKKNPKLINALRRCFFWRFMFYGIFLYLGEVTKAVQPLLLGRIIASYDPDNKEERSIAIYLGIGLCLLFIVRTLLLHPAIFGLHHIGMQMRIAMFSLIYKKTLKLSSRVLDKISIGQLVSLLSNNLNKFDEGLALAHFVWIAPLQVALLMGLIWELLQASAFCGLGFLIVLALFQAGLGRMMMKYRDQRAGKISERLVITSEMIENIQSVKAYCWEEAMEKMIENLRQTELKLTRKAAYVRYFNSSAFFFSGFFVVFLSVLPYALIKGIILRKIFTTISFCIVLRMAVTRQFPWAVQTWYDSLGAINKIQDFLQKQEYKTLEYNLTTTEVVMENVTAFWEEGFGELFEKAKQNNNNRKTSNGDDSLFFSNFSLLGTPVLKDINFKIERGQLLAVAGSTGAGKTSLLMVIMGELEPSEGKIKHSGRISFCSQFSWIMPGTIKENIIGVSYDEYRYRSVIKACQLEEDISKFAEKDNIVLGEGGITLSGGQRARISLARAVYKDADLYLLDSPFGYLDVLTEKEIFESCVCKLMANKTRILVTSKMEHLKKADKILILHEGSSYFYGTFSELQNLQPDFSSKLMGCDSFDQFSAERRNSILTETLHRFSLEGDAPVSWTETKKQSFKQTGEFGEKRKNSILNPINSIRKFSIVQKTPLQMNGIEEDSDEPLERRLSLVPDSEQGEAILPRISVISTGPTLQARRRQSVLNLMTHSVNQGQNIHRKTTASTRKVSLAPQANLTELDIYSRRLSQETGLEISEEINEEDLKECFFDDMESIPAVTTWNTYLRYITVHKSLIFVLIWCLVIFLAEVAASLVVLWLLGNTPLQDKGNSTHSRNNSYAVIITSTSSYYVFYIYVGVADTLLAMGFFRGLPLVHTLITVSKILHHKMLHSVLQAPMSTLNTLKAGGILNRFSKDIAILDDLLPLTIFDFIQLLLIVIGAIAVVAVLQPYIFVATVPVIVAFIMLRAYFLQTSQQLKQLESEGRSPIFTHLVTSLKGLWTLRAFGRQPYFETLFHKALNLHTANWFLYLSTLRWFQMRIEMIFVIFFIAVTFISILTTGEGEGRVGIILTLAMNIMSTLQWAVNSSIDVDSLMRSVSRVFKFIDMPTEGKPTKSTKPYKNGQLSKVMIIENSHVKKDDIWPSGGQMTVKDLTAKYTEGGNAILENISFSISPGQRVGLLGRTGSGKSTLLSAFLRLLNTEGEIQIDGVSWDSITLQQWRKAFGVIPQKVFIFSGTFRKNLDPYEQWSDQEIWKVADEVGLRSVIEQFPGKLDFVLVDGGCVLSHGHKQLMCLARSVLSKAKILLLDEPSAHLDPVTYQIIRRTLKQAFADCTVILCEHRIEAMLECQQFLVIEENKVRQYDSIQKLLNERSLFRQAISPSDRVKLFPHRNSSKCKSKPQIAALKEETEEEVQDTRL

Take `CC(C)c1nn(-c2ccc(F)cc2)c2nc(C(=O)NS(C)(=O)=O)cc(OCCN(C(C)C)C3COC3)c12` [Compound 309, 1-(4-fluorophenyl)-N-(methanesulfonyl)-4-{2-[(oxetan-3-yl)(propan-2-yl)amino]ethoxy}-3-(propan-2-yl)-1H-pyrazolo[3,4-b]pyridine-6-carboxamide]: in test [1], the “% Activation” value was 149% and the EC50 amounted to 444 nM. In test [2], the “% Activation” value came out at 303.6% and the concentration for a half-maximal effect (EC50) was determined as 224 nM.
The like results for `CC(C)c1nn(-c2ccc(F)cc2)c2nc(C(=O)NS(C)(=O)=O)cc(OCC3COCCN3C(C)C)c12` (centres unmarked) [Compound 310, 1-(4-fluorophenyl)-N-(methanesulfonyl)-3-(propan-2-yl)-4-{[4-(propan-2-yl)morpholin-3-yl]methoxy}-1H-pyrazolo[3,4-b]pyridine-6-carboxamide] were, in that order, 66.84%, 692 nM, 251.5% and 924 nM.
The matching figures for `COCCS(=O)(=O)NC(=O)c1cc(OCC2CCOCC2)c2c(C3CCC3)nn(-c3ccccc3)c2n1` [Compound 315, 3-cyclobutyl-N-(2-methoxyethanesulfonyl)-4-[(oxan-4-yl)methoxy]-1-phenyl-1H-pyrazolo[3,4-b]pyridine-6-carboxamide]: 154.87%, 218 nM, 315.5% and 102 nM.
The like results for `CC(C)c1nn(-c2ccc(F)cc2)c2nc(C(=O)NS(C)(=O)=O)cc(N3CCC(N(C)C)CC3)c12` [Compound 319, 4-[4-(dimethylamino)piperidin-1-yl]-1-(4-fluorophenyl)-N-(methanesulfonyl)-3-(propan-2-yl)-1H-pyrazolo[3,4-b]pyridine-6-carboxamide] were, in that order, 34.315%, 298 nM, 232% and 980 nM.
On to `CS(=O)(=O)NC(=O)c1cc(N2CCC(O)(CC#N)CC2)c2c(C3CCC3)nn(-c3ccccc3)c2n1` [Compound 326, 4-[4-(cyanomethyl)-4-hydroxypiperidin-1-yl]-3-cyclobutyl-N-(methanesulfonyl)-1-phenyl-1H-pyrazolo[3,4-b]pyridine-6-carboxamide], for which, in test [1], the “% Activation” value came to 167.1% and the EC50 worked out at 2380 nM. Also, in test [2], the “% Activation” value came to 325.3% and the EC50 is 730 nM.
For the molecule `CC(C)c1nn(-c2cccc(N(C)C)c2)c2nc(C(=O)NS(=O)(=O)CCCN=[N+]=[N-])cc(-c3ccc(N=[N+]=[N-])cc3)c12` [Compound 327, 4-(4-azidophenyl)-N-(3-azidopropane-1-sulfonyl)-1-[3-(dimethylamino)phenyl]-3-(propan-2-yl)-1H-pyrazolo[3,4-b]pyridine-6-carboxamide], in test [1], the “% Activation” value stood at 239.4% and the EC50 was found to be 145 nM. Also, in test [2], the “% Activation” value is reported as 433.9% and the EC50 came out at 99.9 nM.
The like results for `CS(=O)(=O)NC(=O)c1cc(N2CCN(CC(F)(F)F)CC2)c2c(C3CCC3)nn(-c3ccccc3)c2n1` [Compound 329, 3-cyclobutyl-N-(methanesulfonyl)-1-phenyl-4-[4-(2,2,2-trifluoroethyl)piperazin-1-yl]-1H-pyrazolo[3,4-b]pyridine-6-carboxamide] were, in that order, 163.85%, 158 nM, 318.4% and 777 nM.
For the molecule `COCCS(=O)(=O)NC(=O)c1cc(N2CCN(CC(F)(F)F)CC2)c2c(C3CCC3)nn(-c3ccccc3)c2n1` [Compound 330, 3-cyclobutyl-N-(2-methoxyethanesulfonyl)-1-phenyl-4-[4-(2,2,2-trifluoroethyl)piperazin-1-yl]-1H-pyrazolo[3,4-b]pyridine-6-carboxamide], the “% Activation” value worked out at 133.1% in test [1] and 285.4% in test [2]. The EC50 stood at 213 nM in test [1] and 124 nM in test [2].

These data come from patent publication US10259810B2, “N-sulfonylated pyrazolo[3,4-b]pyridin-6-carboxamides and method of use” (AbbVie S.à.r.l., priority 2015, dated 2019).
